Measured values: patent publication US10660914B2, “Stuffy nose deblocking composition having antiviral activity” (MARINOMED BIOTECH AG, priority 2015, dated 2020)

Tests used:
[1] = test system: human rhinovirus 1a (HRV1a); assay: Inhibition of human rhinovirus 1a infection of Hela cells (cell viability, IC50)
Method: (§1) Hela cells were seeded into 96 well plates with a cell density of 5*10^3 cells per well and cultivated for 24 hours in a standard DMEM tissue culture medium containing 4.5 g/I glucose. Virus suspensions containing carrageenan polymer at varying concentrations of between 0 and 150 μg/ml, in combination with NaCl and sorbitol (as indicated in the respective legends to each table) in a dilution series, were incubated for 30 minutes. Cells were infected with these virus suspensions containing the test substances and 7*10^3 (HRV1a) or 5*10^4 (HRV8) infectious units per well. 30 minutes after infection the virus inoculum was removed and substituted by virus-free infection medium containing carrageenan polymer, NaCl salt and sorbitol in the concentrations to be tested. The cells were incubated for 2 to 3 days at 33° C. […] An incubation of cells with the same dilution series of test substances (i.e. carragenan component plus osmolalitiy adjusting agents) in the absence of viral infection was performed to monitor for a potential toxicity of the treatment. Calculation of IC50 values was performed with standard fitting software ExcelFit.

human coronavirus OC43 = assay: Hemagglutination inhibition assay, minimal inhibitory concentration for prevention of hCoV OC43 attachment to chicken RBCs; assay type: cell-based
Method: On a 96-well plate, two hemagglutination units of hCoV OC43/well were incubated with a ½-log dilution series of test or control samples for 10 min at room temperature. Final assay concentrations were 0.002 to 3 μg/ml iota-carrageenan in aqueous 0.5, 0.9, 2.0, 2.3 or 2.6% NaCl solution in the presence or absence of 7% sorbitol. Then, a suspension of chicken RBCs (1% v/v in PBS) was added to each well to allow hemagglutination of red blood cells (RBCs) by the virus for 1.5 hrs at 4° C. At the time point of assay evaluation, control RBCs in the absence of carrageenan were fully agglutinated, whereas hemagglutination was inhibited in the presence of carrageenan up to a sample-specific concentration, the minimal inhibitory concentration.

[2] = test system: human rhinovirus 8 (HRV8); assay: Inhibition of human rhinovirus 8 infection of Hela cells (cell viability, IC50)
Method: as §1

[3] = Osmolality of carrageenan preparations; assay type: physicochemical
[4] = 2% NaCl (670 mOsm/kg) compared to 0.5% NaCl (174 mOsm/kg)
[5] = 2.3% NaCl (776 mOsm/kg) compared to 0.5% NaCl (174 mOsm/kg)
[6] = 2.6% NaCl (872 mOsm/kg) compared to 0.5% NaCl (174 mOsm/kg)
[7] = 0.9% NaCl (295 mOsm/kg) compared to 0.5% NaCl (174 mOsm/kg)

iota-carrageenan [iota carrageenan]
Increase of IC50 value, HRV1a inhibition ([1]; 0.9% NaCl (295 mOsm/kg) compared to hypoosmolar 0.5% NaCl solution (174 mOsm/kg)): 3.1-fold* ^
Increase of IC50 value, HRV1a inhibition [1, 4]: 14.5-fold*
Increase of IC50 value, HRV1a inhibition [1, 5]: 22.3-fold*
Increase of IC50 value, HRV1a inhibition [1, 6]: 33.7-fold*
reduction in inhibitory efficacy on human rhinovirus replication ([1]; isoosmolar (0.9%) and hyperosmolar (2%, 2.3%, 2.6% NaCl) compared with hypoosmolar solution (0.5% NaCl), summary of Table 1): ≤ 34 fold
Increase of the minimal inhibitory concentration, hCV OC43 (human coronavirus OC43; 0.5% NaCl + 7% sorbitol (597 mOsm/kg) compared to 0.5% NaCl (174 mOsm/kg)): 1-fold (ns)
Increase of the minimal inhibitory concentration, hCV OC43 (human coronavirus OC43; [7]): 1-fold (ns)
Increase of the minimal inhibitory concentration, hCV OC43 (human coronavirus OC43; 0.9% NaCl + 7% sorbitol (733 mOsm/kg) compared to 0.5% NaCl (174 mOsm/kg)): 1-fold (ns)
Increase of the minimal inhibitory concentration, hCV OC43 (human coronavirus OC43; [4]): 10-fold*
Increase of the minimal inhibitory concentration, hCV OC43 (human coronavirus OC43; 2.3% NaCl (748 mOsm/kg) compared to 0.5% NaCl (174 mOsm/kg)): 10-fold*
Increase of the minimal inhibitory concentration, hCV OC43 (human coronavirus OC43; 2.3 NaCl (776 mOsm/kg) compared to 0.5% NaCl (174 mOsm/kg)): 10-fold*
Increase of the minimal inhibitory concentration, hCV OC43 (human coronavirus OC43; [6]): 10-fold*
Increase of IC50 value, HRV8 inhibition [2, 7]: 1.8-fold (ns)
Increase of IC50 value, HRV8 inhibition [2, 4]: 3.6-fold*
Increase of IC50 value, HRV8 inhibition [2, 5]: 6.9-fold*
Increase of IC50 value, HRV8 inhibition [2, 6]: 7.5-fold*
osmolality ([3]; Table 1, solution with 0.9% NaCl): 295 mOsm/kg
osmolality ([3]; Table 1, solution with 2% NaCl): 670 mOsm/kg
osmolality ([3]; Table 1, solution with 2.3% NaCl): 776 mOsm/kg
osmolality ([3]; Table 1, solution with 2.6% NaCl): 872 mOsm/kg
osmolality ([3]; Table 4, solution with 0.9% NaCl): 295 mOsm/kg
osmolality ([3]; Table 4, solution with 2% NaCl): 670 mOsm/kg
osmolality ([3]; Table 4, solution with 2.3 NaCl): 776 mOsm/kg
osmolality ([3]; Table 4, solution with 2.6% NaCl): 872 mOsm/kg
osmolality ([3]; Table 5, solution with 0.5% NaCl + 7% sorbitol): 597 mOsm/kg
osmolality ([3]; Table 5, solution with 0.9% NaCl + 7% sorbitol): 733 mOsm/kg
osmolality ([3]; Table 5, solution with 2.3% NaCl): 748 mOsm/kg
